Test results from ChEMBL document CHEMBL1158459, “Discovery of a peroxisome proliferator activated receptor gamma (PPARgamma) modulator with balanced PPARalpha activity for the treatment of type 2 diabetes and dyslipidemia” (J Med Chem, 2009).
Activity calls are given as the source filed them. The calls are words filed in the database; no cut-off is given here.

Experiments:
Mus musculus [1] = experiment: Antidiabetic activity in C57BLKS/J-m+/+Leprdb db/db mouse assessed as reduction in plasma triglyceride levels at 3 mg/kg, po once daily for 11 days relative to control; assay type: functional; set-up: scale not given: the % may be the effect or the level left
Mus musculus [2] = experiment: Antidiabetic activity in ob/ob mouse assessed as reduction in plasma triglyceride levels at 3 mg/kg, po once daily for 5 days relative to control; assay type: functional; set-up: scale not given: the % may be the effect or the level left
Mus musculus [3] = experiment: Antidiabetic activity in ob/ob mouse assessed as reduction in plasma glucose levels at 3 mg/kg, po once daily for 5 days relative to control; assay type: functional; set-up: scale not given: the % may be the effect or the level left
[4] = Cmax in C57BLKS/J-m+/+Leprdb db/db mouse at 1 mg/kg, po once daily for 11 days; assay type: ADME, organism-based; set-up: dose 1 mg/kg, route oral; settings: in vivo
[5] = Cmax in C57BLKS/J-m+/+Leprdb db/db mouse at 3 mg/kg, po once daily for 11 days; assay type: ADME, organism-based; set-up: dose 3 mg/kg, route oral; settings: in vivo
[6] = Cmax in C57BLKS/J-m+/+Leprdb db/db mouse at 10 mg/kg, po once daily for 11 days; assay type: ADME, organism-based; set-up: dose 10 mg/kg, route oral; settings: in vivo
[7] = AUC in C57BLKS/J-m+/+Leprdb db/db mouse at 3 mg/kg, po once daily for 11 days; assay type: ADME, organism-based; set-up: dose 3 mg/kg, route oral; settings: plasma
Mus musculus [8] = experiment: Antidiabetic activity in high fat diet-fed streptozotocin-treated mouse assessed as reduction in plasma glucose levels at 5 mg/kg, po once daily for 12 days relative to control; assay type: functional; set-up: scale not given: the % may be the effect or the level left
[9] = AUC in high fat diet-fed streptozotocin-treated mouse at 30 mg/kg, po once daily for 12 days; assay type: ADME, organism-based; set-up: dose 30 mg/kg, route oral; settings: plasma
Rattus norvegicus [10] = experiment: Antidiabetic activity in Zucker fa/fa rat assessed as decrease in triglyceride levels at 0.3 mg/kg, po once daily for 7 days; assay type: functional, organism-based; set-up: dose 0.3 mg/kg
Rattus norvegicus [11] = experiment: Antidiabetic activity in Zucker fa/fa rat assessed as decrease in triglyceride levels at 100 mg/kg, po once daily for 7 days; assay type: functional, organism-based; set-up: dose 100 mg/kg
Rattus norvegicus [12] = experiment: Antidiabetic activity in po dosed Zucker fa/fa rat assessed as insulin lowering activity treated once daily for 7 days; assay type: functional
Syrian golden hamster [13] = experiment: Antidiabetic activity in Syrian golden hamster assessed as reduction in cholesterol level at 0.3 mg/kg, po once daily for 9 days relative to control; assay type: functional, Mesocricetus auratus; set-up: scale not given: the % may be the effect or the level left
Syrian golden hamster [14] = experiment: Antidiabetic activity in Syrian golden hamster assessed as reduction in cholesterol level at 1 mg/kg, po once daily for 9 days relative to control; assay type: functional, Mesocricetus auratus; set-up: scale not given: the % may be the effect or the level left
[15] = AUC in Syrian golden hamster at 3 mg/kg, po once daily for 9 days; assay type: ADME, organism-based, Mesocricetus auratus; set-up: dose 3 mg/kg, route oral; settings: plasma
Canis familiaris = experiment: Antidiabetic activity in Beagle dog assessed as reduction in total cholesterol level at 3 mg/kg, po once daily for 14 days relative to control; assay type: functional, Canis lupus familiaris; set-up: scale not given: the % may be the effect or the level left
[16] = AUC in Sprague-Dawley rat at 60 mg/kg, po once daily for 14 days; assay type: ADME, organism-based; set-up: dose 60 mg/kg, route oral; settings: plasma
Rattus norvegicus [17] = experiment: Toxicity in Sprague-Dawley rat assessed as increase in liver weight at 60 mg/kg, po once daily for 14 days; assay type: organism-based; set-up: dose 60 mg/kg, route oral; settings: in vivo, 336 h
[18] = biological target: T1, Peroxisome proliferator-activated receptor alpha (Homo sapiens, UniProt Q07869); experiment: Inhibition of human PPARalpha receptor by scintillation proximity assay
T1 sequence (Q07869 whole entry): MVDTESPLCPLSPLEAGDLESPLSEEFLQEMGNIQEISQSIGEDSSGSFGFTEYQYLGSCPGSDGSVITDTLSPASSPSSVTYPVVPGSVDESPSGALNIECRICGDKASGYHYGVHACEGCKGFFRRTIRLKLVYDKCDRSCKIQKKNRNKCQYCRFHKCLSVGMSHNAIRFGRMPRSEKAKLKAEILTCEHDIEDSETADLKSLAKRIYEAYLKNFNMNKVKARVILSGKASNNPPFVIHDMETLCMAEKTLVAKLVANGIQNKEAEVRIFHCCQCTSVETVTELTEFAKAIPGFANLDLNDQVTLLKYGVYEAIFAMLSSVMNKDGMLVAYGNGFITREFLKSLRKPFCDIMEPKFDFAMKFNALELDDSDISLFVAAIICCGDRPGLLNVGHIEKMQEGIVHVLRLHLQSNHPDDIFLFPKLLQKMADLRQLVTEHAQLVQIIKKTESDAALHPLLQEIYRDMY

[19] = biological target: T1, Peroxisome proliferator-activated receptor alpha; assay type: functional, cell-based, COS-1
Description: Agonist activity at human PPARalpha receptor expressed in african green monkey COS1 cells co-transfected with fused yeast Gal4-DBD by transactivation assay

[20] = biological target: T2, Peroxisome proliferator-activated receptor alpha (Mus musculus, UniProt P23204); experiment: Agonist activity at mouse PPARalpha receptor expressed in african green monkey COS1 cells co-transfected with fused yeast Gal4-DBD by transactivation assay; assay type: functional, cell-based, COS-1
T2 sequence (P23204 whole entry): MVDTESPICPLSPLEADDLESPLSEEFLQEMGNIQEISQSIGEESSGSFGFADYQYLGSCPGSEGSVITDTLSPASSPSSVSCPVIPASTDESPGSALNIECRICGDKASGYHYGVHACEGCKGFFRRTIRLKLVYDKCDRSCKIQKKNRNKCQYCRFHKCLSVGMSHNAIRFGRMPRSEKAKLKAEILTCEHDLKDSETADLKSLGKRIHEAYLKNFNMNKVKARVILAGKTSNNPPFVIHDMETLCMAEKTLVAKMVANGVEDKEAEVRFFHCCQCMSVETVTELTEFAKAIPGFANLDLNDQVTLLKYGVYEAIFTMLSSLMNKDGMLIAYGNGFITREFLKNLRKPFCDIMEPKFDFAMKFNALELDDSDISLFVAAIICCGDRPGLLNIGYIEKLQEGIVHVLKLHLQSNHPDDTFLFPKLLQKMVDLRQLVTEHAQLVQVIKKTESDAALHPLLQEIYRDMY

Mus musculus [21] = experiment: Antidiabetic activity in C57BLKS/J-m+/+Leprdb db/db mouse assessed as reduction in plasma glucose levels at 10 mg/kg, po once daily for 11 days relative to control; assay type: functional; set-up: scale not given: the % may be the effect or the level left
[22] = Agonist activity at hamster PPARalpha receptor; assay type: functional, Cricetinae
Cytochrome P450 2C19 = Cytochrome P450 2C19 (Homo sapiens, UniProt P33261); experiment: Inhibition of CYP2C19; assay type: ADME
Cytochrome P450 1A2 = Cytochrome P450 1A2 (Homo sapiens, UniProt P05177); experiment: Inhibition of CYP1A2; assay type: ADME
[23] = biological target: Oxysterols receptor LXR-beta (Homo sapiens) (UniProt P55055); experiment: Binding affinity to LXRbeta up to 10 uM
[24] = biological target: T3, Nuclear receptor subfamily 1 group I member 2 (Homo sapiens, UniProt O75469); experiment: Binding affinity to PXR up to 10 uM
[25] = biological target: Thyroid hormone receptor beta (Homo sapiens) (UniProt P10828); experiment: Binding affinity to TRbeta up to 10 uM
[26] = biological target: Oxysterols receptor LXR-alpha (Homo sapiens) (UniProt Q13133); experiment: Activity at LXRalpha receptor up to 10 uM by transactivation assay
[27] = biological target: Retinoic acid receptor RXR-alpha (Homo sapiens) (UniProt P19793); experiment: Activity at RXRalpha receptor up to 10 uM by transactivation assay
[28] = biological target: T3, Nuclear receptor subfamily 1 group I member 2; experiment: Activity at PXR receptor up to 10 uM by transactivation assay
[29] = biological target: Estrogen receptor (Homo sapiens) (UniProt P03372); experiment: Activity at ERalpha receptor up to 10 uM by transactivation assay
[30] = biological target: Estrogen receptor beta (Homo sapiens) (UniProt Q92731); experiment: Activity at ERbeta receptor up to 10 uM by transactivation assay
Chain of Estrogen receptor beta (Homo sapiens) (Q92731 whole entry): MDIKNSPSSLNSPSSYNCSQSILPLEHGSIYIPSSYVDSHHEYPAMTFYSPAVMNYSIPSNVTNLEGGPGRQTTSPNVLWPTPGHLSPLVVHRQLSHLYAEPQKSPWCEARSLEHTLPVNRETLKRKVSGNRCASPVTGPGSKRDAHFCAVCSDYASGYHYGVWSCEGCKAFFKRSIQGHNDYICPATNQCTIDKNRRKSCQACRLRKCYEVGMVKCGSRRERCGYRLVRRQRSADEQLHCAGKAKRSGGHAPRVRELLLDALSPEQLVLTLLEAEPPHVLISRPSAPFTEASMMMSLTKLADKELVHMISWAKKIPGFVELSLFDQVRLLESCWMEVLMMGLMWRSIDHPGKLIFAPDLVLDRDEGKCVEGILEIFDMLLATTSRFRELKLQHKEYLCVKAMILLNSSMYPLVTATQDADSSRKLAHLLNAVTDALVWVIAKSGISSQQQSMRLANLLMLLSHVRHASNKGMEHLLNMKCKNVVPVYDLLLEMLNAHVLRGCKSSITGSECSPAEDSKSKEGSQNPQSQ

T3 sequence (O75469 whole entry): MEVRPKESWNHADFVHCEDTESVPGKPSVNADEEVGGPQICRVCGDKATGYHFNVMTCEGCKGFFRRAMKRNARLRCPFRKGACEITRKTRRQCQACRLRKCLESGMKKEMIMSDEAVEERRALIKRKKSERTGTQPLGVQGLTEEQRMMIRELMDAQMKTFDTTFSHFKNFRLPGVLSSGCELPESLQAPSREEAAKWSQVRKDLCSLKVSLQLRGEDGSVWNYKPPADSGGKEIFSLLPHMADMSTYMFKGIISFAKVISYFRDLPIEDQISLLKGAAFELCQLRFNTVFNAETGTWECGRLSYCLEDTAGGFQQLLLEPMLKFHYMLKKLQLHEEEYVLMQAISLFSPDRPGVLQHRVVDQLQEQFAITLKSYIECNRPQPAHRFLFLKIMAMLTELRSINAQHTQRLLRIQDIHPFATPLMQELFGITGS
Chain of Oxysterols receptor LXR-beta (Homo sapiens) (P55055 whole entry): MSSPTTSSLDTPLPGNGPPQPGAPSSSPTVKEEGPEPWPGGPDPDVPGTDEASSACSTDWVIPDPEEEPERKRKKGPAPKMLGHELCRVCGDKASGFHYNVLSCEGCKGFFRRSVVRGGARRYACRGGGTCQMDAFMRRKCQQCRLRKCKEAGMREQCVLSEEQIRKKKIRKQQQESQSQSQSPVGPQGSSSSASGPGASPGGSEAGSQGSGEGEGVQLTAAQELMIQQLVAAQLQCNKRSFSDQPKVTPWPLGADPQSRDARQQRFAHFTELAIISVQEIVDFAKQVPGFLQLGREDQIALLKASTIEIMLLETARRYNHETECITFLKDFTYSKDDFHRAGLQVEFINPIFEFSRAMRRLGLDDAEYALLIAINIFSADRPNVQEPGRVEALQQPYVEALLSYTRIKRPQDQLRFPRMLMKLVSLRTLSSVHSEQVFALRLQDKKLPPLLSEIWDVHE
Chain of Retinoic acid receptor RXR-alpha (Homo sapiens) (P19793 whole entry): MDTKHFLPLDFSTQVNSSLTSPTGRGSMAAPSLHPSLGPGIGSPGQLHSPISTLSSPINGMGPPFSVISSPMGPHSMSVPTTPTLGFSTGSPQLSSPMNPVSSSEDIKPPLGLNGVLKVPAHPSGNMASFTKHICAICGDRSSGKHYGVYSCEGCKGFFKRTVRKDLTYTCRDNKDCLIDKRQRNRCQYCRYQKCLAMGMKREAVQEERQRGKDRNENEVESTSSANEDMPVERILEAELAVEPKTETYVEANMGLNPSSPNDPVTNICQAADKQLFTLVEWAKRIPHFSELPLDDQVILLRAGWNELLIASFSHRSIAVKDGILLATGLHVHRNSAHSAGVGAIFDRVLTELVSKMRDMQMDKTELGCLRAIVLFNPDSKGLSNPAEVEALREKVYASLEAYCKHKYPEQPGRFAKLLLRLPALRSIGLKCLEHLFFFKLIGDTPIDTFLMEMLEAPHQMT
Chain of Estrogen receptor (Homo sapiens) (P03372 whole entry): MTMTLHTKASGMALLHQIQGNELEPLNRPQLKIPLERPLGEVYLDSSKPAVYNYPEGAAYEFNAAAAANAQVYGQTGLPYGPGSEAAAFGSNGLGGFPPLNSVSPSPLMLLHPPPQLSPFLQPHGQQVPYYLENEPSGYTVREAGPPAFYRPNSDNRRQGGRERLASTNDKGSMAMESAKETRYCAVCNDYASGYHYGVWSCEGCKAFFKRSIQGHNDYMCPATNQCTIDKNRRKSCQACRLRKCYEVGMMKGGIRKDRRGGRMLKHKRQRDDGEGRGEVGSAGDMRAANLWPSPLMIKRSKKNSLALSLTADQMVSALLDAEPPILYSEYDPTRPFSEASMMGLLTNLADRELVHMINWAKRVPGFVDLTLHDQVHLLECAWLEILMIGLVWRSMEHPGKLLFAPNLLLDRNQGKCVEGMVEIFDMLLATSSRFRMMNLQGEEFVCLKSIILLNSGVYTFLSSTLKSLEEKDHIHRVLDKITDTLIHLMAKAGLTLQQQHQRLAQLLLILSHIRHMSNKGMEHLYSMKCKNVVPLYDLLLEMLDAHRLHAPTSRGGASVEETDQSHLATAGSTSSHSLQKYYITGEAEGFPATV
Chain of Cytochrome P450 1A2 (P05177 whole entry): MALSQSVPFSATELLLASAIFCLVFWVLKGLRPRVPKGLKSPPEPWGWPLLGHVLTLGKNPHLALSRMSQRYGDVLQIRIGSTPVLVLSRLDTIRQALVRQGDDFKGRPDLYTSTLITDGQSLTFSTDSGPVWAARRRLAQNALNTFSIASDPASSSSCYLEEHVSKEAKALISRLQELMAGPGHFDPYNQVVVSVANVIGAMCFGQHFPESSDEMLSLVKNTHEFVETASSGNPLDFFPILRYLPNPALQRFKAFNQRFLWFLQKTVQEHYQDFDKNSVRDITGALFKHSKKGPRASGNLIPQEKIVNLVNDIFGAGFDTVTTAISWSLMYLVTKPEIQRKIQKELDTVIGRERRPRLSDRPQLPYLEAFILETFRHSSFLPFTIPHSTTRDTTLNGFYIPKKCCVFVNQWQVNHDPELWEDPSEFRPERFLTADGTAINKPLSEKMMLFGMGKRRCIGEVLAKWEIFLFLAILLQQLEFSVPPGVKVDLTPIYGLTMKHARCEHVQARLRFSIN
Chain of Oxysterols receptor LXR-alpha (Homo sapiens) (Q13133 whole entry): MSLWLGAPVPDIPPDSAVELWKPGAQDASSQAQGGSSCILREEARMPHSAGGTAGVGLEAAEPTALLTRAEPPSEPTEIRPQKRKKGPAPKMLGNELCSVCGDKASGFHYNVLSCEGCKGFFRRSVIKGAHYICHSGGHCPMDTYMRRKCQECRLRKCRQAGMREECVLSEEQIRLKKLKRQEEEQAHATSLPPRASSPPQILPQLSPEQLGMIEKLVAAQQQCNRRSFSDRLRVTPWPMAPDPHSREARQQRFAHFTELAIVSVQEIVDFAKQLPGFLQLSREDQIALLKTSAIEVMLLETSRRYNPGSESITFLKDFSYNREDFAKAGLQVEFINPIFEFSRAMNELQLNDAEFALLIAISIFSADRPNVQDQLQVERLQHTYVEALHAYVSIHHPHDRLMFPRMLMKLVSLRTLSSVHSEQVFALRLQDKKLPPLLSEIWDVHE
Chain of Cytochrome P450 2C19 (P33261 whole entry): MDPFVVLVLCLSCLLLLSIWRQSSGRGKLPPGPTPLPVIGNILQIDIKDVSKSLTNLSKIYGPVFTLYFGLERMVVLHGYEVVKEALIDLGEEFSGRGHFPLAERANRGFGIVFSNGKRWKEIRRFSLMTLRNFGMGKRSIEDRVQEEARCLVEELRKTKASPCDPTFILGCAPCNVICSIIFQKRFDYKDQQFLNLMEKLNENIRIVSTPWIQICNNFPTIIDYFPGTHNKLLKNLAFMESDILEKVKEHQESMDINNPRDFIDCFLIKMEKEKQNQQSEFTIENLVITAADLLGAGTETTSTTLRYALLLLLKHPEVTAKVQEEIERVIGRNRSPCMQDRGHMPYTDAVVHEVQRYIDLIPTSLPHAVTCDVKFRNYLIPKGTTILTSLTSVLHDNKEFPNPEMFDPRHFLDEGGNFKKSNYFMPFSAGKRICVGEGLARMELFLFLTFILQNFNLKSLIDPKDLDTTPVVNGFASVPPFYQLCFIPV
Chain of Thyroid hormone receptor beta (Homo sapiens) (P10828 whole entry): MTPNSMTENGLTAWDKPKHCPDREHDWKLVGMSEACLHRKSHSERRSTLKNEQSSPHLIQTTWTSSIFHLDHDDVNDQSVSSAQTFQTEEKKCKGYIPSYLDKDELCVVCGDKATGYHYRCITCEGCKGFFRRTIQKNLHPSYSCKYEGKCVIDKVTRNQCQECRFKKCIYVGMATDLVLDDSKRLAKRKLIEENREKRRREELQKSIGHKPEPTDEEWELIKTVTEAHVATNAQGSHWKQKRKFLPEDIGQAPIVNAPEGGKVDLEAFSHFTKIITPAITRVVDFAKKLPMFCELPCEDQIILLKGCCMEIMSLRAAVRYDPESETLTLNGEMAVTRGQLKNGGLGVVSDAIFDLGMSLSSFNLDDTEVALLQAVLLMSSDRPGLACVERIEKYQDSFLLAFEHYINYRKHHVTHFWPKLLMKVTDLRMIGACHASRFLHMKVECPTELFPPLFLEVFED

## CC[C@@H](Oc1cccc(Cn2c(C)c(C(=O)c3ccc(Cl)cc3)c3ccc(OC(F)(F)F)cc32)c1)C(=O)O
Mus musculus [1]
  Activity: 85%
Mus musculus [2]
  Activity: 27%
Mus musculus [3]
  Activity: 21%
[4]
  Cmax: 1.5 µM
[5]
  Cmax: 5.4 µM
[6]
  Cmax: 9.6 µM
[7]
  AUC at 264 h: 6.4 µM·h
Mus musculus [8]
  Activity: 75%
[9]
  AUC at 288 h: 8.2 µM·h
Rattus norvegicus [10]
  Activity: Active
Rattus norvegicus [11]
  Activity: Active
Rattus norvegicus [12]
  ED50: 10 µM·h
Syrian golden hamster [13]
  Activity: 21.9%
Syrian golden hamster [14]
  Activity: 33.9%
[15]
  AUC at 216 h: 2.11 µM·h
Canis familiaris
  Activity: 26%
[16]
  AUC at 336 h: 40 µM·h
Rattus norvegicus [17]
  Activity: 127%
[18]
  IC50: 2620 nM
[19]
  EC50: 230 nM
[20]
  EC50: 120 nM
Mus musculus [21]
  Activity: 101%
[22]
  EC50: 0.46 nM
Cytochrome P450 2C19
  IC50: 91000 nM
Cytochrome P450 1A2
  IC50: 40000 nM
[23]
  Activity: inactive
[24]
  Activity: Not Active
[25]
  Activity: inactive
[26]
  Activity: inactive
[27]
  Activity: inactive
[28]
  Activity: Not Active
[29]
  Activity: inactive
[30]
  Activity: inactive
